# Reference: ChEMBL document CHEMBL1126460, “The use of synthetic phosphopeptides for epitope mapping of the s1-casein phosphopeptide segment 5979” (Bioorg Med Chem Lett, 1992)
# Test: Peptide was evaluated for inhibition in competitive ELISA at a concentration of 1 mM using casein phosphopeptide alpha s1-casein (59-79) as the adsorbed antigen
row,Compound,inhibition
1,H-QMEAE-OH,10%
2,CC[C@H](C)[C@H](NC(=O)[C@H](CCC(=O)O)NC(=O)[C@@H](N)CCC(=O)O)C(=O)N[C@H](C(=O)N1CCC[C@@H]1C(=O)N[C@@H](CC(N)=O)C(=O)O)C(C)C,10.8%
3,CC[C@H](C)[C@H](N)C(=O)N[C@H](C(=O)N1CCC[C@@H]1C(=O)N[C@@H](CC(N)=O)C(=O)N[C@@H](COP(=O)(Oc1ccccc1)Oc1ccccc1)C(=O)N[C@H](C(=O)N[C@@H](CCC(=O)O)C(=O)N[C@@H](CCC(=O)O)C(=O)NC)C(C)C)C(C)C,60.3%
4,CC[C@H](C)[C@H](NC(=O)[C@H](COP(=O)(Oc1ccccc1)Oc1ccccc1)NC(=O)[C@H](CCC(=O)O)NC(=O)[C@H](C)NC(=O)[C@@H](N)CCC(=O)O)C(=O)NC,10.9%

# Further lines, results first:
row,inhibition,Compound
1,12%,CC[C@H](C)[C@H](N)C(=O)N[C@H](C(=O)N1CCC[C@@H]1C(=O)N[C@@H](CC(N)=O)C(=O)N[C@@H](CO)C(=O)N[C@H](C(=O)N[C@@H](CCC(=O)O)C(=O)N[C@@H](CCC(=O)O)C(=O)NC)C(C)C)C(C)C
2,20%,CC[C@H](C)[C@H](NC(=O)[C@H](COP(=O)(Oc1ccccc1)Oc1ccccc1)NC(=O)[C@H](CCC(=O)O)NC(C)=O)C(=O)N[C@@H](COP(=O)(Oc1ccccc1)Oc1ccccc1)C(=O)N[C@@H](COP(=O)(Oc1ccccc1)Oc1ccccc1)C(=O)N[C@@H](COP(=O)(Oc1ccccc1)Oc1ccccc1)C(=O)N[C@@H](CCC(=O)O)C(=O)NC(CCC(=O)O)C(=O)NC (stereo partly specified)
